Assay: in vitro
Conditions: human, hela cells, % viability

Row | Compound | viability at 28.5 h, 10 µM [%] | viability at 28.5 h, 10 µM (bulk resorufin, single well) [%]
1 | O=C(Nc1nnc[nH]1)c1ccccc1CCc1ccccc1 [CBK268616] | 95.9 | –
2 | Cc1c(C)n(CC(=O)O)c2ccccc12 [CBK000884] | 97 | –
3 | CC1CCN(Cc2ccc(-c3nnn(CC(=O)NCc4ccc([N+](=O)[O-])cc4)n3)cc2)CC1 [CBK144176C] | 101 | –
4 | Cn1nc(C2CCN(Cc3ccccc3)CC2)c2cccnc21 [CBK285095] | 94.9 | –
5 | N=c1n(CC(=O)O)c2ccccc2n1Cc1ccccc1Cl [CBK262917B] | 90.3 | –
6 | O=C(NCc1c(Cl)cccc1Cl)N1CCCC(CO)C1 (stereo not shown) [CBK156054] | 95.7 | –
7 | O=S(=O)(CCc1ccccc1)N1CCCn2nc(-c3ccncc3)cc2C1 [CBK288608] | 87.3 | –
8 | Cc1ccc(S(=O)(=O)NCCSCc2cccc(Cl)c2)cc1[N+](=O)[O-] [CBK264116] | 93.4 | –
9 | COc1cc(NC(=O)C(c2ccccc2)c2ccccc2)c(C(=O)O)cc1OC [CBK262001] | 90.1 | –
10 | NCCCCCCNc1ncnc2c1ncn2[C@H]1C[C@@H](O)[C@@H](CO)O1 [CBK201260] | 105 | –
11 | COc1ccc(C(NC(=O)c2ccc(Cn3nc(C)cc3C)o2)c2ccccc2)cc1 (stereo not shown) [CBK285578] | 87.8 | –
12 | COc1cnc(-c2cnn(C)c2)c(NC(=O)c2ccco2)n1 [CBK145329] | 103 | –
13 | O=C(O)C1(NS(=O)(=O)c2ccc(Cl)cc2)CCCCC1 [CBK028566] | 111 | –
14 | NCCNC(=O)c1ccc(-c2cccc(C(F)(F)F)c2)o1 [CBK115927C] | 104 | –
15 | O=c1[nH]c(=O)n(Cc2cccnc2)c2nc[nH]c12 [CBK291260] | 111 | –
16 | Cc1ccc(Cn2nc(C(=O)Nc3ccc4c(c3)OCO4)c3ccccc32)cc1 [CBK047847] | – | 87
17 | O=c1cc(CN2CCN(c3ccccc3)CC2)occ1O [CBK288392] | 89 | –
18 | CCC(C)NC(=O)CN1CCN(Cn2nnc3ccccc3c2=O)CC1 (stereo not shown) [CBK305032] | 100 | –
19 | O=C(Cc1c[nH]c2ccccc12)N1CCC2(CCCN(C(=O)c3cccnc3)C2)C1 (stereo not shown) [CBK131604] | 103 | –
20 | CCOC(=O)C(C)N1C(=O)S/C(=C/c2cc(Cl)c(OCC(=O)O)c(Br)c2)C1=O (stereo not shown) [CBK265163] | 99.9 | –
21 | O=C(CSc1nnc(-c2ccccc2Cl)[nH]1)c1ccc(O)c(O)c1 [CBK267693] | 78.3 | –
22 | CC(=O)NC(c1nccs1)C1CCN(C(=O)C(C)(C)C)CC1 (stereo not shown) [CBK284677] | 88.9 | –

Row | Compound | viability at 28.5 h, 10 µM [%] | viability at 28.5 h, 10 µM (bulk resorufin, single well) [%]
23 | CC(C)NS(=O)(=O)c1ccc(NC(=O)Cc2cccc3ccccc23)cc1 [CBK268102] | 94.8 | –
24 | O=C(O)c1cc(NC(=O)C(c2ccccc2)c2ccccc2)cc(C(=O)O)c1 [CBK261191] | 93.2 | –
25 | Cn1cc(CNC(=O)Nc2cccc(CN3CCCCC3=O)c2)cn1 [CBK305062] | 91.4 | –
26 | O=C(CN1C(=O)N2CCN=C2c2ccccc21)NC1CC1 [CBK283958] | 93.1 | –
27 | O=C(O)CCCNC(=O)c1ccncc1 [CBK261146] | 104 | –
28 | Oc1cccc(-c2cc(CC3(NCc4ccc(F)cc4)COC3)no2)c1 [CBK289646] | 108 | –
29 | O=C(NCc1ccc(F)cc1)c1ccc(=O)n(CC(=O)N2CCC3(CCCCC3)C2)c1 [CBK286021] | 109 | –
30 | CCC(=O)N1CCCC1c1nc(C)c2c(n1)N(CCc1ccccc1OC)CCC2 (stereo not shown) [CBK286246] | 95.4 | –
31 | Cc1nc(CCNCc2c(C)nn(C)c2N(C)C)cs1 [CBK304828] | 88.3 | –
32 | N#CCCN(C(=O)NCc1ccc2c(c1)OCO2)C1CCCCC1 [CBK156351] | 98.7 | –
33 | Cc1c(Cl)c(C(=O)N[C@@H]2CCN(Cc3ccccn3)C[C@H]2O)nn1C [CBK306676] | 96 | –
34 | Cc1c(C(=O)O)sc(S(=O)(=O)N2CCN(C(=O)c3ccc(Cl)cc3)CC2)c1C(=O)O [CBK297123] | 96.9 | –
35 | O=C(c1ccco1)N1CCN(c2ncccn2)CC1 [CBK144524] | 111 | –
36 | COc1ccc(-c2ccc3c(c2)COC2(CCNCC2)O3)c(OC)c1 [CBK061344] | – | 91.1
37 | COc1ccc2cc(/C=C(\C#N)c3nc(-c4cc5c(ccc6ccccc65)oc4=O)cs3)c(Cl)nc2c1 [CBK261636] | 94 | –
38 | CSCCC(=O)N1CCC2(CCN(Cc3ccccc3)CC2)C1 [CBK136757] | 101 | –
39 | Cc1cc([N+](=O)[O-])cc[n+]1[O-] [CBK261014] | 102 | –
40 | CCCn1c(C)cc2cc(NC(=O)Cn3ccnc3)ccc21 [CBK281549] | 92.4 | –
41 | COc1ccc([C@@]23CC[C@@H](NC(=O)N(C)c4ccc(Cl)cc4)C[C@@H]2N(C)CC3)cc1OC [CBK045682T] | 90.8 | –
42 | O=S(=O)(c1ccccc1)N1CCC(c2cc3ncccc3[nH]2)CC1 [CBK283397] | 104 | –
43 | COc1ccc(S(=O)(=O)Nc2nccc(-c3ccc(CN4C(=O)CCC4=O)cc3)n2)cc1 [CBK067438] | 91.5 | –
44 | Cc1ccc(OCc2cc(C)on2)c(Br)c1 [CBK002837] | 109 | –

Row | Compound | viability at 28.5 h, 10 µM [%] | viability at 28.5 h, 10 µM (bulk resorufin, single well) [%]
45 | Cc1ccc(CS(=O)(=O)NCc2ccccc2-n2ccnc2)cc1 [CBK281462] | 96.5 | –
46 | C=CCOc1ccc(-c2nc3s/c(=C4\C(=O)N(Cc5ccccc5F)c5ccccc54)c(=O)n3n2)cc1 [CBK266615] | 108 | –
47 | NC(=O)CSc1nnc(COc2ccc(Br)cc2)n1-c1ccccc1 [CBK267277] | 101 | –
48 | CCCn1ccnc1CN1CCCC(CC2CC2)(C(=O)O)C1 (stereo not shown) [CBK307205] | 100 | –
49 | CC1(C(=O)O)CCCC2(C)c3cc(O)ccc3CCC12 (stereo not shown) [CBK027214] | 97.4 | –
50 | Cc1cc(NC(=O)CC2CCCCC2)nc2c1c(=O)oc1ccccc12 [CBK291151] | 90.6 | –
51 | Cc1ccc(Cl)c(OC(C)C(=O)N2CCCC(C(N)=O)C2)c1 (stereo not shown) [CBK304936] | 99.3 | –
52 | O=c1[nH]c(=O)c2cc(S(=O)(=O)NCC3(N4CCOCC4)CCCCC3)ccc2[nH]1 [CBK286390] | 105 | –
53 | CN(C)S(=O)(=O)N(CC(=O)Nc1ccc2c(c1)OCO2)c1ccccc1 [CBK268481] | 110 | –
54 | Cc1nc2nc(-c3ccc(F)cc3F)cn2nc1C [CBK284564] | 90.3 | –
55 | Cc1cc(C)n(CCCNC(=O)Nc2cccnc2)n1 [CBK304820] | 84.6 | –
56 | O=C(N[C@H]1CC[C@H](O)CC1)C1(Cc2cc(-c3ccc(F)cc3F)no2)CCOCC1 [CBK286352] | 94.9 | –
57 | CNCCc1n[nH]c(N)n1 [CBK020959] | 89.4 | –
58 | FC(F)(F)c1cccnc1OCCCc1ccncc1 [CBK115782] | 93.9 | –
59 | CCN(CCO)c1ccc(Nc2cc(-c3cc(C(F)(F)F)cc(C(F)(F)F)c3)ncn2)cc1 [CBK090994] | 106 | –
60 | COc1ccc(Oc2nccnc2N2CCN(Cc3ccc(Cl)c(Cl)c3)CC2)cc1OC [CBK083038T] | 91.8 | –
61 | CCN1CC2(CCN(CCCC#N)CC2)c2ccccc21 [CBK136995] | 91.1 | –
62 | COc1cccc2c(=O)n(CCCn3nc(C)nc3C)cnc12 [CBK307295] | 97 | –
63 | O=C(NCCOc1ccccc1F)C1CC(=O)N(Cc2ccccn2)C1 (stereo not shown) [CBK304632] | 104 | –
64 | CCn1ccc(C(=O)NC(c2cncc(OC)c2)[C@H]2C[C@@H](O)C2)cc1=O (stereo partly shown) [CBK307696] | 110 | –
65 | Cn1c(O)c(CCNc2cc([C@H]3C[C@@H](N)C3)nc(C3CC3)n2)cnc1=O [CBK306819] | 85 | –
66 | CC(Cc1cccs1)NC(=O)C(C)Cn1cccn1 (stereo not shown) [CBK283250] | 85.4 | –

Row | Compound | viability at 28.5 h, 10 µM [%] | viability at 28.5 h, 10 µM (bulk resorufin, single well) [%]
67 | CC(=O)Nc1ccc(S(=O)(=O)Nc2ccc(C(=O)N3CCOCC3)cc2)cc1 [CBK034564] | 94.9 | –
68 | CCOC(=O)C1CCCN(c2c(C#N)cnc3ccc(Cl)cc23)C1 (stereo not shown) [CBK304405] | 85.8 | –
69 | CN(C)Cc1c(O)ccc2c(=O)c(Oc3ccc(-c4ccccc4)cc3)c(C(F)(F)F)oc12 [CBK264519] | 107 | –
70 | CN(C)c1nc(NCc2ccccc2)nc(SCC(=O)Nc2ccccc2Cl)n1 [CBK267190] | 93.3 | –
71 | O=[N+]([O-])c1ccc(CN2CCN(C3CCN(Cc4ccccc4)CC3)CC2)cc1 [CBK264310G] | 98.5 | –
72 | Nc1nc2cccnc2cc1-c1ccc2c(c1)OCCCO2 [CBK081201] | 97.7 | –
73 | O=C(Cc1csc(-c2ccc(Cl)cc2)n1)Nc1cccnc1 [CBK107300] | 101 | –
74 | O=C(O)C1C2CC(c3ccccc3)C(C2)C1C(=O)O (stereo not shown) [CBK287147] | 95.7 | –
75 | COc1ccc2c(c1OC)C(=O)N(c1ncc(C)s1)C2 [CBK109943] | 99 | –
76 | Cc1oc2ccc(O)cc2c1C(=O)NCCCN1CC(C)CC(C)C1 (stereo not shown) [CBK282161] | 110 | –
77 | CC(=O)Nc1cccc(C(=O)OCC(=O)N2CCC(C)CC2)c1 [CBK305905] | 98.3 | –
78 | Cc1cc(Cn2ccc(C(F)(F)F)n2)c(C)c(-c2c(C#N)c(N)nc3c2CCCCC3)c1 [CBK267928] | 104 | –
79 | COc1cc(C2SCC(=O)Nc3c2c(-c2ccccc2)nn3-c2ccccc2)cc(OC)c1OC (stereo not shown) [CBK265025] | 108 | –
80 | O=C(O)c1ccc(/C=N/NC(=O)C2COc3ccccc3O2)cc1 (stereo not shown) [CBK261481] | 100 | –
81 | COc1ccc2[nH]cc(CCNC(=O)c3cccnc3)c2c1 [CBK122722] | 101 | –
82 | CC(C)Cn1ncc2cc(C(=O)Nc3ccnn3C(C)C)cnc21 [CBK304938] | 79 | –
83 | COCOc1ccc(-c2nc(-c3cccnc3)cnc2N)cc1 [CBK063999] | 93.6 | –
84 | Fc1ccc(-c2cccc(N3CCN(c4ccccn4)CC3)n2)cc1Cl [CBK036877] | 104 | –
85 | N#Cc1c(NC(=O)CSc2nc(-c3ccco3)cc(C(F)(F)F)n2)sc2c1CCCC2 [CBK266193] | 87 | –
86 | COc1ccc(-c2cncc(N3CCCC3CO)n2)cc1 (stereo not shown) [CBK037223] | 112 | –
87 | CCCCn1c(SCc2nc(-c3ccncc3)no2)nc2ccsc2c1=O [CBK288576] | 87 | –
88 | COC(=O)c1c(NC(=O)c2ccccc2)csc1C [CBK026684] | 90.3 | –

From paper PMC12040169 (PLOS Biology, 2025)
